In US20230407243A1, “GENETIC PLATFORM TO INVESTIGATE THE FUNCTIONS OF BACTERIAL DRUG EFFLUX PUMPS” (priority 2022, published 2023):

Assays:
Format in all cases: cell-based, Escherichia coli
EKO-35 araC::acrD = test: MIC susceptibility profiling, efflux platform; conditions: for Fold change of MICs: EKO-35 araC::acrD compared to EKO-35; for Minimum Inhibitory Concentration, EKO-35 araC::acrD: Table 13A, non-porinated, technical duplicate
Outline: (§1)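 Each compound was serially diluted twofold, in duplicate, and challenged with a 1/2000 dilution of PBS-washed cells (OD600 ~1.0) in MHB II. Plates were shaken at 37 °C for 18 h and OD600 was read at room temperature, with the baseline subtracted.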

EKO-35 araC::acrBD408A = test: MIC susceptibility profiling, efflux platform; conditions: for Fold change of MICs: EKO-35 araC::acrBD408A compared to EKO-35; for Minimum Inhibitory Concentration, EKO-35 araC::acrBD408A: Table 13B, non-porinated, technical duplicate
Outline: as §1

EKO-35 araC::emrKY = test: MIC susceptibility profiling, efflux platform; conditions: for Fold change of MICs: EKO-35 araC::emrKY compared to EKO-35; for Minimum Inhibitory Concentration, EKO-35 araC::emrKY: Table 13B, non-porinated, technical duplicate
Outline: as §1

EKO-35 araC::mdtBC = test: MIC susceptibility profiling, efflux platform; conditions: for Fold change of MICs: EKO-35 araC::mdtBC compared to EKO-35; for Minimum Inhibitory Concentration, EKO-35 araC::mdtBC: Table 13B, non-porinated, technical duplicate
Outline: as §1

EKO-35 araC::mdtEF = test: MIC susceptibility profiling, efflux platform; conditions: for Fold change of MICs: EKO-35 araC::mdtEF compared to EKO-35; for Minimum Inhibitory Concentration, EKO-35 araC::mdtEF: Table 13A, non-porinated, technical duplicate
Outline: as §1

[1] = tested on: EKO-35 araC::mexCD (MexCD from P. aeruginosa); test: MIC susceptibility profiling, efflux platform; conditions: for Fold change of MICs: EKO-35 araC::mexCD compared to EKO-35; for Minimum Inhibitory Concentration, EKO-35 araC::mexCD: Table 13B, non-porinated, technical duplicate
Outline: as §1

EKO-35 araC::macAB = test: MIC susceptibility profiling, efflux platform; conditions: for Fold change of MICs: EKO-35 araC::macAB compared to EKO-35; for Minimum Inhibitory Concentration, EKO-35 araC::macAB: Table 13B, non-porinated, technical duplicate
Outline: as §1

EKO-35 araC::emrAB = test: MIC susceptibility profiling, efflux platform; conditions: for Fold change of MICs: EKO-35 araC::emrAB compared to EKO-35; for Minimum Inhibitory Concentration, EKO-35 araC::emrAB: Table 13B, non-porinated, technical duplicate
Outline: as §1

EKO-35 araC::acrEF = test: MIC susceptibility profiling, efflux platform; conditions: for Fold change of MICs: EKO-35 araC::acrEF compared to EKO-35; for Minimum Inhibitory Concentration, EKO-35 araC::acrEF: Table 13A, non-porinated, technical duplicate
Outline: as §1

EKO-35 araC::acrB = test: MIC susceptibility profiling, efflux platform; conditions: for Minimum Inhibitory Concentration, EKO-35 araC::acrB: Table 13A, non-porinated, technical duplicate
Outline: as §1

ΔtolC-Pore = test: microbe, parasite or virus in culture; conditions: technical duplicate; for Minimum inhibitory concentration (MIC), Pore ΔtolC: Table 10, with pore; for Minimum inhibitory concentration, ΔtolC-Pore: Table 14A, porinated
Outline: (§2)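 E. coli strains carrying a genomically integrated constitutive fhuA ΔC/Δ4L pore were grown 18 h in LB at 37 °C, then diluted 1/2000 in MHB II from OD600 ~1.0. Compounds were tested in duplicate, 2-fold serial titration, for 18 h at 37 °C with shaking. MIC came from OD600 with the pre-incubation background subtracted.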

wild-type (WT) K-12-Pore = test: microbe, parasite or virus in culture; conditions: technical duplicate; for Minimum inhibitory concentration (MIC), Pore K-12: Table 10, with pore; for Minimum inhibitory concentration, K-12 (WT)-Pore: Table 14A, porinated
Outline: as §2

EKO-35 araC::acrB Pore = test: MIC susceptibility profiling, porinated efflux platform; conditions: for Fold changes of MICs: EKO-35 araC::acr-B Pore compared to EKO-35-Pore; for Minimum inhibitory concentration, EKO-35 araC::acrB Pore: Table 14A, porinated, technical duplicate
Outline: as §2

EKO-35 araC::mdtBC Pore = test: as above; conditions: for Fold changes of MICs: EKO-35 araC::mdtBC Pore compared to EKO-35-Pore; for Minimum inhibitory concentration: EKO-35 araC::mdtBC Pore, technical duplicate
Outline: as §2

EKO-35 araC::mdtEF Pore = test: as above; conditions: for Minimum inhibitory concentration, EKO-35 araC::mdtEF Pore: Table 14A, porinated, technical duplicate
Outline: as §2

EKO-35-Pore = test: MIC susceptibility profiling, porinated strain; conditions: for Fold changes of MICs: EKO-35-Pore compared to EKO-35-Pore (reference); for Minimum inhibitory concentration (MIC), Pore EKO-35: Table 10, with pore; for Minimum inhibitory concentration (MIC), Pore EKO-35 / Minimum inhibitory concentration, EKO-35-Pore: technical duplicate; for Minimum inhibitory concentration, EKO-35-Pore: Table 14A, porinated
Outline: as §2

E. coli ΔtolC = test: microbe, parasite or virus in culture; conditions: technical duplicate; for Minimum inhibitory concentration (MIC), ΔtolC: Table 10, without pore; for Minimum Inhibitory Concentration, ΔtolC: Table 13A, non-porinated
Outline: as §1

[2] = tested on: wild-type E. coli K-12 str. BW25113; test: microbe, parasite or virus in culture; conditions: technical duplicate; for Minimum inhibitory concentration (MIC), K-12: Table 10, without pore; for Minimum Inhibitory Concentration, K-12: Table 13A, non-porinated
Outline: as §1

E. coli EKO-35 = test: microbe, parasite or virus in culture; conditions: for Fold change of MICs: EKO-35 compared to EKO-35 (reference); for Minimum inhibitory concentration (MIC), EKO-35: Table 10, without pore; for Minimum inhibitory concentration (MIC), EKO-35 / Minimum Inhibitory Concentration, EKO-35: technical duplicate; for Minimum Inhibitory Concentration, EKO-35: Table 13A, non-porinated
Outline: as §1

Compound	Fold change of MICs (EKO-35 araC::acrD)	Minimum Inhibitory Concentration, EKO-35 araC::acrD (EKO-35 araC::acrD)	Fold change of MICs (EKO-35 araC::acrBD408A)	Minimum Inhibitory Concentration, EKO-35 araC::acrBD408A (EKO-35 araC::acrBD408A)	Fold change of MICs (EKO-35 araC::emrKY)	Minimum Inhibitory Concentration, EKO-35 araC::emrKY (EKO-35 araC::emrKY)	Fold change of MICs (EKO-35 araC::mdtBC)	Minimum Inhibitory Concentration, EKO-35 araC::mdtBC (EKO-35 araC::mdtBC)	Fold change of MICs (EKO-35 araC::mdtEF)	Minimum Inhibitory Concentration, EKO-35 araC::mdtEF (EKO-35 araC::mdtEF)	Fold change of MICs [1]	Minimum Inhibitory Concentration, EKO-35 araC::mexCD [1]	Fold change of MICs (EKO-35 araC::macAB)	Minimum Inhibitory Concentration, EKO-35 araC::macAB (EKO-35 araC::macAB)	Fold change of MICs (EKO-35 araC::emrAB)	Minimum Inhibitory Concentration, EKO-35 araC::emrAB (EKO-35 araC::emrAB)	Fold change of MICs (EKO-35 araC::acrEF)	Minimum Inhibitory Concentration, EKO-35 araC::acrEF (EKO-35 araC::acrEF)	Minimum Inhibitory Concentration, EKO-35 araC::acrB (EKO-35 araC::acrB)	Minimum inhibitory concentration (MIC), Pore ΔtolC (ΔtolC-Pore)	further results
O=[N+]([O-])c1ccc2c(c1)C(=NO)c1cc([N+](=O)[O-])ccc1-2 [compound 11]	8 fold	0.625 µg/mL	1 fold	0.078 µg/mL	1 fold	0.078 µg/mL	1 fold	0.078 µg/mL	128 fold	10 µg/mL	16 fold	1.25 µg/mL	1 fold	0.078 µg/mL	512 fold	40 µg/mL	4096 fold	320 µg/mL	320 µg/mL	0.156 µg/mL	Minimum inhibitory concentration, ΔtolC-Pore (ΔtolC-Pore): 0.156 µg/mL; Minimum inhibitory concentration (MIC), Pore K-12 (wild-type (WT) K-12-Pore): 80 µg/mL; Minimum inhibitory concentration, K-12 (WT)-Pore (wild-type (WT) K-12-Pore): 80 µg/mL; Fold changes of MICs (EKO-35 araC::acrB Pore): 1024 fold; Minimum inhibitory concentration, EKO-35 araC::acrB Pore (EKO-35 araC::acrB Pore): 80 µg/mL; Fold changes of MICs (EKO-35 araC::mdtBC Pore): 1 fold; Minimum inhibitory concentration (EKO-35 araC::mdtBC Pore): 0.078 µg/mL; Fold changes of MICs (EKO-35 araC::mdtEF Pore; EKO-35 araC::mdtEF Pore compared to EKO-35-Pore): 64 fold; Minimum inhibitory concentration, EKO-35 araC::mdtEF Pore (EKO-35 araC::mdtEF Pore): 5 µg/mL; Fold changes of MICs (EKO-35-Pore): 1 fold; Minimum inhibitory concentration (MIC), Pore EKO-35 (EKO-35-Pore): 0.078 µg/mL; Minimum inhibitory concentration, EKO-35-Pore (EKO-35-Pore): 0.078 µg/mL; Minimum inhibitory concentration (MIC), ΔtolC (E. coli ΔtolC): 0.156 µg/mL; Minimum Inhibitory Concentration, ΔtolC (E. coli ΔtolC): 0.156 µg/mL; Minimum inhibitory concentration (MIC), K-12 [2]: 320 µg/mL; Minimum Inhibitory Concentration, K-12 [2]: 320 µg/mL; Fold change of MICs (E. coli EKO-35): 1 fold; Minimum inhibitory concentration (MIC), EKO-35 (E. coli EKO-35): 0.078 µg/mL; Minimum Inhibitory Concentration, EKO-35 (E. coli EKO-35): 0.078 µg/mL; susceptibility of EKO-35 to the compound (E. coli EKO-35; synthetic efflux substrates of FIG. 12): susceptible
CC(C)c1ccc(C=C(C#N)c2nc3ccccc3[nH]2)cc1 [compound 12]	1 fold	320 µg/mL	1 fold	320 µg/mL	1 fold	320 µg/mL	1 fold	320 µg/mL	1 fold	320 µg/mL	1 fold	320 µg/mL	1 fold	320 µg/mL	1 fold	320 µg/mL	1 fold	320 µg/mL	320 µg/mL	0.625 µg/mL	Fold change of MICs (EKO-35 araC::acrB; EKO-35 araC::acrB compared to EKO-35): 1 fold; Minimum inhibitory concentration, ΔtolC-Pore (ΔtolC-Pore): 0.625 µg/mL; Minimum inhibitory concentration (MIC), Pore K-12 (wild-type (WT) K-12-Pore): 320 µg/mL; Minimum inhibitory concentration, K-12 (WT)-Pore (wild-type (WT) K-12-Pore): 320 µg/mL; Fold changes of MICs (EKO-35 araC::acrB Pore): 2 fold; Minimum inhibitory concentration, EKO-35 araC::acrB Pore (EKO-35 araC::acrB Pore): 320 µg/mL; Fold changes of MICs (EKO-35 araC::mdtBC Pore): 2 fold; Minimum inhibitory concentration (EKO-35 araC::mdtBC Pore): 320 µg/mL; Minimum inhibitory concentration, EKO-35 araC::mdtEF Pore (EKO-35 araC::mdtEF Pore): 320 µg/mL; Fold changes of MICs (EKO-35-Pore): 1 fold; Minimum inhibitory concentration (MIC), Pore EKO-35 (EKO-35-Pore): 160 µg/mL; Minimum inhibitory concentration, EKO-35-Pore (EKO-35-Pore): 160 µg/mL; Minimum inhibitory concentration (MIC), ΔtolC (E. coli ΔtolC): 1.25 µg/mL; Minimum Inhibitory Concentration, ΔtolC (E. coli ΔtolC): 1.25 µg/mL; Minimum inhibitory concentration (MIC), K-12 [2]: 320 µg/mL; Minimum Inhibitory Concentration, K-12 [2]: 320 µg/mL; Fold change of MICs (E. coli EKO-35): 1 fold; Minimum inhibitory concentration (MIC), EKO-35 (E. coli EKO-35): 320 µg/mL; Minimum Inhibitory Concentration, EKO-35 (E. coli EKO-35): 320 µg/mL
